We go through one sequence from patent US9303069B2, “Peptides for treating cancer” (University of Mississippi Medical Center, priority 2014, dated 2016).

Format in all cases: cell-based, human
In one assay the test system is AKT, ERK, MDM2 and Skp2. Kind of assay: Signalling proteins in SKOV3 and OVCAR3 cells (Western). The source says:
Finally, to further dissect the IRIS-induced cisplatin resistance pathway, PI3′K/AKT (using […]) and ERK (using PD98059) were inactivated and compared to IRIS peptide in two aggressive ovarian cancer cell lines. […] Phosphorylation of cytoplasmic or nuclear FOXO3a by p-AKT and/or p-ERK promotes MDM2 binding and priming ubiquitylation, which is then followed by Skp2 branching ubiquitylation and FOXO3a degradation (Huang and Tindall, 2011). FOXO was less phosphorylated in LY, PD as well as IRIS-silenced/inactivated SKOV3 or OVCAR3 cells (FIG. 34). […] Consistently, in BRCA1-IRIS silenced/inactivated cells accumulation of unphosphorylated/stabilized FOXO3a was detected. In contrast, FOXO3a was still decreased to different degrees in LY or PD treated cells (FIG. 34).

The next assay deals with BRCA1-IRIS. Kind of assay: BRCA1-IRIS expression in breast cells (Western). As to the method:
HME and HME/IRIS cells were treated with 10, 20 and 50 μM of paclitaxel for 24 hours. Compared to HME/IRIS cells, untreated HME cells express very low level of BRCA1-IRIS (FIG. 68, left). […] Both EGF and NRG1, which were secreted at higher levels from untreated HME/IRIS cells, remained high after paclitaxel (until ˜50 μM, FIG. 68, left), whereas in HME cells, both were induced by low paclitaxel treatment (FIG. 68, left). Consistently, in HME/IRIS cells EGFR was phosphorylated on Y1173 (activated by EGF when EGFR is in complex with ErbB2) and ErbB2 on Y1248 (activated by NRG1 when ErbB2 is in complex with ErbB3) remained the same after paclitaxel treatment (until ˜50 μM, FIG. 68, left). Phosphorylated EGFR-Y1173 and ErbB2-Y1248 was only observed in paclitaxel treated HME cells, especially at low concentration (FIG. 68, left).
Survived/paclitaxel-resistant cells were then propagated in the absence of paclitaxel and analyzed. Again, the intrinsically high level of BRCA1-IRIS was not affected by paclitaxel in HME/IRIS cells (FIG. 69, left). […] The expressions of EGFR, ErbB2 and ErbB3 were high in HME/IRIS and HME cells (FIG. 69, left). Despite an intrinsic increase in HME/IRIS and paclitaxel-acquired increase in HME cells in AKT activation, FOXO inactivation/degradation and thus activation increase in CyclinD1, survivin, Bcl-2, Bcl-xL and NF-κB was observed (FIG. 69, right).
To test that hypothesis, an intron 11 peptide (right in FIG. 26) fused to a cell/nucleus penetrating signal at its N-terminus (left in FIG. 26) was synthesized (hereafter IRIS peptide). First, to assess the effect of this IRIS peptide, equal numbers of HME, HME/IRIS, MDA-MB-231, MDA-MB-468 and BT549 cells were exposed to increasing concentrations of scrambled or IRIS peptide for 48 hours. […] It is possible that preventing BRCA1-IRIS-X complex formation destabilizes BRCA1-IRIS and perhaps leads to its degradation.
To investigate whether inactivating BRCA1-IRIS could sensitize TNBC to paclitaxel-induced cell death, HME cells were exposed to 0.5 μM, while HME/IRIS, MDA-MB-231, MDA-MB-468 and BT549 cells were exposed to 5 μM of IRIS peptide alone or with 5, 10 or 20 μM of paclitaxel for 24 hours. […] Again, IRIS peptide alone at these concentrations led to 50% reduction in survival of all cell lines. […] Indeed, in the presence of IRIS peptide >60%, >70% and >90% reduction in the survival of all cell lines in the presence of 5, 10 and 20 μM of paclitaxel, respectively (FIG. 84).
To relate the effect of IRIS peptide on cell survival to the effect of BRCA1-IRIS on AKT and ERK survival pathways, MDA-MB-231 and MDA-MB-468 were treated with vehicle, 5 μM of IRIS peptide, 10 μM LY294002, 10 μM PD98059 for 24 hours or were transfected with BRCA1-IRIS siRNA for 72 hours.

Assay [1] concerns MDA-MB-231 and MDA-MB-468 cells. Kind of assay: Invasion assay, matrigel coated Boyden chambers, TNBC cells. As to conditions: peptide added every 3rd day. The source says: To study invasion in vitro, matrigel coated Boyden chambers were layered with MDA-MB-231 or MDA-MB-468 cells expressing shcontrol of shIRIS expressing cells, also parental cells were layered and grown in the presence of scrambled or IRIS peptide (added every 3rd day). To migrate to the lower side of the chamber or the bottom well, cells must first digest the matrigel. Four days later, a significant number of control treated cells invaded the matrigel and migrated to the lower side of the chambers (FIG. 95, 1st column and FIG. 96) and the bottom well (FIG. 97 and FIG. 98, 1st column) in both cell lines. […] Quantitatively, BRCA1-IRIS silencing or inactivation reduced the invasive/migratory ability of these TNBC cells by ˜100 fold (FIG. 96 and FIG. 97).
Cell Invasion assay. Growth reduced BD Matrigel™ invasion chamber (24 well plate, 8.0 μm, BD BioCoat™) was used to study the invasion ability of control shRNA and BRCA1-IRIS shRNA expressing MDAMB231 cells. Cells (5×10^3) in complete medium (500 μl) were seeded on the upper compartment, and the lower compartment was filled with 750 μl of complete growth medium. […] Cells invaded into the lower side of the membrane as well as those migrate to the bottom well were stained with Crystal Violet, visualized under microscope, photographed and counted. […]

Ends that are not written are not given here.

With “RRIRPRPPRLPRPRPRPLPFPRPGIGTRFLCLPQSIYRSELNVYAFGEHILQISKYS [IRIS peptide]”, the “AKT and ERK expression and activation” value in the assay with AKT, ERK, MDM2 and Skp2 was “decreased expression and inactivated AKT and ERK”. Also, the BRCA1-IRIS expression entry was “significant reduction in BRCA1-IRIS expression” with BRCA1-IRIS (HME, HME/IRIS and TNBC cell lines, 5 μM of IRIS peptide for 24 hours); “significantly decreased in both cell lines” with BRCA1-IRIS (MDA-MB-231 and MDA-MB-468, 5 μM IRIS peptide, 10 μM LY294002 or 10 μM PD98059 24 hours, siRNA 72 hours); “completely abolished BRCA1-IRIS expression in all cell lines” in the assay on BRCA1-IRIS (all cell lines, IRIS peptide 0.5 μM (HME) or 5 μM (others), 24 hours). Also, the “reduction of invasive/migratory ability” value in assay [1] is on record as around 100 fold.
